What follows are cell lines tested with CC(O)(CS(=O)(=O)c1ccc(F)cc1)C(=O)Nc1ccc(C#N)c(C(F)(F)F)c1 [Bicalutamide] + Nc1nc2[nH]cc(CCc3ccc(C(=O)N[C@@H](CCC(=O)O)C(=O)O)cc3)c2c(=O)[nH]1 [Pemetrexed] (partner 0.2 µM) (assay: relative viability (nuclei count vs DMSO), 5 days (fraction); higher = more cells survive). Details: first compound 0.08 µM.
Procedure, shortened: (§1)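 Relative viability equals treated-well nuclei counts divided by vehicle-well nuclei counts. Counts came from 4× images of lung cancer cell lines grown in 1536-well plates for 5 days after pin-tool dosing on the day after seeding. Dosing used one drug alone or a fixed anchor-drug dose plus five library-drug doses (not always all listed) in √10 steps, and values are medians of duplicate plates.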

Question: HARA was tested. Which relative viability did it give?
Answer: 0.233

Question: Which relative viability does the source give for HCC-78 here?
Answer: 0.947

Question: For NCI-H441, which relative viability is on record?
Answer: 0.311

Question: LCLC-97TM1 was tested. Which relative viability did it give?
Answer: 0.169

Question: How did the relative viability turn out when NCI-H2023 was run?
Answer: 0.267

Question: A-427 was tested. Which relative viability did it give?
Answer: 0.986

Question: Which relative viability does the source give for NCI-H460 here?
Answer: 0.0574

Question: Which relative viability does the source give for NCI-H1734 here?
Answer: 0.428

Question: For NCI-H520, which relative viability is on record?
Answer: 0.846

Question: NCI-H2405 was tested. Which relative viability did it give?
Answer: 1.07

Question: With SW 1573 as the cell line, how does the relative viability read?
Answer: 0.952

Question: NCI-H1395 was tested. Which relative viability did it give?
Answer: 0.89

Question: For 201T, which relative viability is on record?
Answer: 0.306

Question: How did the relative viability turn out when NCI-H1915 was run?
Answer: 0.509

Question: For HCC-827, which relative viability is on record?
Answer: 0.261

Question: Which relative viability does the source give for LXF-289 here?
Answer: 0.929

Question: How did the relative viability turn out when NCI-H2347 was run?
Answer: 0.463

Question: With CAL-12T as the cell line, how does the relative viability read?
Answer: 1.34

Question: How did the relative viability turn out when NCI-H1651 was run?
Answer: 0.597

Question: EPLC-272H was tested. Which relative viability did it give?
Answer: 0.424

Question: NCI-H23 was tested. Which relative viability did it give?
Answer: 0.52

Question: Which relative viability does the source give for NCI-H1355 here?
Answer: 1.04

Question: How did the relative viability turn out when NCI-H322M was run?
Answer: 0.594

Question: NCI-H1437 was tested. Which relative viability did it give?
Answer: 0.312

Question: For NCI-H1755, which relative viability is on record?
Answer: 0.386

Question: For NCI-H2085, which relative viability is on record?
Answer: 0.837

Question: HCC-15 was tested. Which relative viability did it give?
Answer: 0.23

Question: Which relative viability does the source give for NCI-H1793 here?
Answer: 0.914

Question: For PC-3 [JPC-3], which relative viability is on record?
Answer: 1.08

Question: Which relative viability does the source give for EKVX here?
Answer: 0.378

Question: Which relative viability does the source give for LC-2-ad here?
Answer: 0.268

Same assay, conditions: first compound 0.253 µM

Question: Which relative viability does the source give for HCC-78 here?
Answer: 0.708

Question: With NCI-H441 as the cell line, how does the relative viability read?
Answer: 0.281

Question: For LCLC-97TM1, which relative viability is on record?
Answer: 0.173

Question: For NCI-H2023, which relative viability is on record?
Answer: 0.175

Question: Which relative viability does the source give for A-427 here?
Answer: 0.968

Question: For NCI-H460, which relative viability is on record?
Answer: 0.0589

Question: Which relative viability does the source give for NCI-H1734 here?
Answer: 0.405

Question: How did the relative viability turn out when NCI-H520 was run?
Answer: 0.635

Question: How did the relative viability turn out when NCI-H2405 was run?
Answer: 1.01

Question: For SW 1573, which relative viability is on record?
Answer: 0.749

Question: With NCI-H1395 as the cell line, how does the relative viability read?
Answer: 0.766

Question: Which relative viability does the source give for 201T here?
Answer: 0.33

Question: NCI-H1915 was tested. Which relative viability did it give?
Answer: 0.516

Question: HCC-827 was tested. Which relative viability did it give?
Answer: 0.218

Question: LXF-289 was tested. Which relative viability did it give?
Answer: 0.815

Question: With NCI-H2347 as the cell line, how does the relative viability read?
Answer: 0.444

Question: How did the relative viability turn out when CAL-12T was run?
Answer: 1.06

Question: For NCI-H1651, which relative viability is on record?
Answer: 0.525

Question: With EPLC-272H as the cell line, how does the relative viability read?
Answer: 0.322

Question: With NCI-H23 as the cell line, how does the relative viability read?
Answer: 0.528

Question: Which relative viability does the source give for NCI-H1355 here?
Answer: 0.992

Question: For NCI-H322M, which relative viability is on record?
Answer: 0.553

Question: For NCI-H1437, which relative viability is on record?
Answer: 0.303

Question: NCI-H1755 was tested. Which relative viability did it give?
Answer: 0.379

Question: Which relative viability does the source give for NCI-H2085 here?
Answer: 0.708

Question: How did the relative viability turn out when HCC-15 was run?
Answer: 0.231

Question: For PC-3 [JPC-3], which relative viability is on record?
Answer: 1.11

Question: How did the relative viability turn out when EKVX was run?
Answer: 0.335

Question: With LC-2-ad as the cell line, how does the relative viability read?
Answer: 0.256

Same assay, conditions: first compound 0.8 µM

Question: HARA was tested. Which relative viability did it give?
Answer: 0.299

Question: HCC-78 was tested. Which relative viability did it give?
Answer: 0.962

Question: NCI-H441 was tested. Which relative viability did it give?
Answer: 0.284

Question: With LCLC-97TM1 as the cell line, how does the relative viability read?
Answer: 0.203

Question: With NCI-H2023 as the cell line, how does the relative viability read?
Answer: 0.279

Question: Which relative viability does the source give for A-427 here?
Answer: 1.11

Question: With NCI-H460 as the cell line, how does the relative viability read?
Answer: 0.0592

Question: With NCI-H1734 as the cell line, how does the relative viability read?
Answer: 0.455

Question: NCI-H520 was tested. Which relative viability did it give?
Answer: 0.81

Question: For NCI-H2405, which relative viability is on record?
Answer: 1.35

Question: For SW 1573, which relative viability is on record?
Answer: 1.02

Question: Which relative viability does the source give for NCI-H1395 here?
Answer: 0.965

Question: For 201T, which relative viability is on record?
Answer: 0.328

Question: Which relative viability does the source give for NCI-H1915 here?
Answer: 0.481

Question: For HCC-827, which relative viability is on record?
Answer: 0.289

Question: LXF-289 was tested. Which relative viability did it give?
Answer: 0.916

Question: With NCI-H2347 as the cell line, how does the relative viability read?
Answer: 0.453

Question: CAL-12T was tested. Which relative viability did it give?
Answer: 1.28

Question: With NCI-H1651 as the cell line, how does the relative viability read?
Answer: 0.672

Question: EPLC-272H was tested. Which relative viability did it give?
Answer: 0.359

Question: NCI-H23 was tested. Which relative viability did it give?
Answer: 0.854

Question: For NCI-H1355, which relative viability is on record?
Answer: 1.1

Question: Which relative viability does the source give for NCI-H322M here?
Answer: 0.635

Question: With NCI-H1437 as the cell line, how does the relative viability read?
Answer: 0.349

Question: NCI-H1755 was tested. Which relative viability did it give?
Answer: 0.434

Question: For NCI-H2085, which relative viability is on record?
Answer: 0.912

Question: With HCC-15 as the cell line, how does the relative viability read?
Answer: 0.221

Question: How did the relative viability turn out when NCI-H1793 was run?
Answer: 1.07

Question: How did the relative viability turn out when PC-3 [JPC-3] was run?
Answer: 1.41

Question: Which relative viability does the source give for EKVX here?
Answer: 0.392

Question: How did the relative viability turn out when LC-2-ad was run?
Answer: 0.275

Same assay, conditions: first compound 2.53 µM

Question: With HARA as the cell line, how does the relative viability read?
Answer: 0.251

Question: HCC-78 was tested. Which relative viability did it give?
Answer: 0.939

Question: Which relative viability does the source give for NCI-H441 here?
Answer: 0.272

Question: LCLC-97TM1 was tested. Which relative viability did it give?
Answer: 0.181

Question: How did the relative viability turn out when NCI-H2023 was run?
Answer: 0.223

Question: With A-427 as the cell line, how does the relative viability read?
Answer: 0.913

Question: Which relative viability does the source give for NCI-H460 here?
Answer: 0.0687

Question: With NCI-H1734 as the cell line, how does the relative viability read?
Answer: 0.393

Question: With NCI-H520 as the cell line, how does the relative viability read?
Answer: 0.635

Question: With NCI-H2405 as the cell line, how does the relative viability read?
Answer: 1.04

Question: With SW 1573 as the cell line, how does the relative viability read?
Answer: 0.819

Question: Which relative viability does the source give for NCI-H1395 here?
Answer: 0.709

Question: How did the relative viability turn out when 201T was run?
Answer: 0.36

Question: For NCI-H1915, which relative viability is on record?
Answer: 0.48

Question: For HCC-827, which relative viability is on record?
Answer: 0.306

Question: Which relative viability does the source give for LXF-289 here?
Answer: 0.949

Question: With NCI-H2347 as the cell line, how does the relative viability read?
Answer: 0.445

Question: With CAL-12T as the cell line, how does the relative viability read?
Answer: 1.14

Question: How did the relative viability turn out when NCI-H1651 was run?
Answer: 0.618

Question: For EPLC-272H, which relative viability is on record?
Answer: 0.207

Question: For NCI-H23, which relative viability is on record?
Answer: 0.578

Question: How did the relative viability turn out when NCI-H1355 was run?
Answer: 0.999

Question: Which relative viability does the source give for NCI-H322M here?
Answer: 0.709

Question: With NCI-H1437 as the cell line, how does the relative viability read?
Answer: 0.316

Question: For NCI-H1755, which relative viability is on record?
Answer: 0.477

Question: How did the relative viability turn out when NCI-H2085 was run?
Answer: 0.775

Question: HCC-15 was tested. Which relative viability did it give?
Answer: 0.223

Question: How did the relative viability turn out when NCI-H1793 was run?
Answer: 0.907

Question: Which relative viability does the source give for PC-3 [JPC-3] here?
Answer: 1.12

Question: With EKVX as the cell line, how does the relative viability read?
Answer: 0.391

Question: LC-2-ad was tested. Which relative viability did it give?
Answer: 0.267

These cell lines were tested with C(C(=O)C(=O)O)Br [Bromopyruvate] + CC1(C)CCC(c2ccc(Cl)cc2)=C(CN2CCN(c3ccc(C(=O)NS(=O)(=O)c4ccc(N[C@H](CCN5CCOCC5)CSc5ccccc5)c(S(=O)(=O)C(F)(F)F)c4)cc3)CC2)C1 [Navitoclax] (partner 0.5 µM) in the same assay as above. Details: first compound 1 µM.
Procedure, shortened: as §1

Question: Which relative viability does the source give for HARA here?
Answer: 1.12

Question: For HCC-78, which relative viability is on record?
Answer: 0.386

Question: How did the relative viability turn out when NCI-H441 was run?
Answer: 0.539

Question: NCI-H2023 was tested. Which relative viability did it give?
Answer: 0.97

Question: A-427 was tested. Which relative viability did it give?
Answer: 0.967

Question: Which relative viability does the source give for NCI-H460 here?
Answer: 1.11

Question: How did the relative viability turn out when NCI-H1734 was run?
Answer: 0.76

Question: NCI-H520 was tested. Which relative viability did it give?
Answer: 1.05
